Measured values from patent US20250296961A1, “ANTIMICROBIAL PEPTIDES FOR REMINERALIZATION OF TEETH AND PREVENTION OF DENTAL CARIES” (The University of Hong Kong, priority 2021, published 2025).
Where two headings read alike, the source gives them in different places. Non-standard residues stand in square brackets, D forms with d. No end group written: not given here. *: point of attachment. 3,4‑dihydroxyphenethylamine = Oc1ccc(CCN*)cc1O; pS = N[C@@H](COP(=O)(O)O)C(=O)O

Columns and labels:
S. sanguinis = assay: Anti-planktonic bacterial ability, MBC (Example 2); type: cell-based, S. sanguinis (ATCC 10556)
Experimental: (§1) S. mutans (ATCC 35668, ATCC, Manassas, USA), S. gordonii (ATCC 35105, ATCC, Manassas, USA), and S. sanguinis (ATCC 10556, ATCC, Manassas, USA) strains were cultured in brain-heart infusion broth (BHI, Difco Laboratories, Detroit, USA) at 37° C. under anaerobic conditions (85% N2, 10% H2, and 5% CO2). Bacteria were harvested by centrifugation (5000 rpm, 10 min), washed once with sodium phosphate-buffered saline (PBS, 10 mM, pH=7.2), and resuspended in BHI at a concentration of 1×10^6 CFU mL^−1.
(§2) Each well was seeded with 10 μL S. mutans suspension, S. gordonii suspension, and S. sanguinis suspension, respectively. […] The bacterial growth was assessed by measuring the absorbance at 595 nm using a microplate reader after a 24-hour incubation. Subsequently, 10 μL of bacterial suspension from each well were plated on horse blood agar plates and incubated at 37° C. for 48 h. The antibacterial activities of AMPs were evaluated.

S. mutans [1] = assay: Anti-planktonic bacterial ability, MBC (Example 2); type: cell-based, S. mutans (ATCC 35668)
Experimental: as §1, §2

S. gordonii = assay: Anti-planktonic bacterial ability, MBC (Example 2); type: cell-based, S. gordonii (ATCC 35105)
Experimental: as §1, §2

in vitro = settings: human, human saliva (centrifuged, filtered supernatant)
Experimental: (§5) The collected saliva samples were centrifuged at 12,000 rpm for 20 min^21]. The supernatant was filtered to remove any debris. […] At 0, 0.5, 1, 2, 4, and 6 h, 40 uL solutions were taken from each sample and were analysed by High Performance Liquid Chromatography (HPLC-UV, 1525 Binary HPLC Pump, 2489 UV/Visible Detector, Waters, USA).

MC3T3-E1 cells = assay: Cytocompatibility test, CCK-8 (Example 2); parameters: Cytocompatibility: key to the marks not given beside the values
[2] = for Peptide concentration incubated in human saliva: 37° C.
Experimental: as §5

[3] = Demineralization assay of peptide-coated enamel (Example 1); parameters: species or system human; settings: for Maximum lesion depth: 8 μmol/mL coating, MicroCT
Experimental: (§3) 3×3×1.5 mm^3 (number: 197) tooth slices were prepared using a water-cooled diamond saw (IsoMet low-speed saw, Buehler, Lake Bluff, IL, USA). One working surface of complete enamel tissue from each tooth slice was generated using the MicroCT Skyscan 1172 (Bruker MicroCT, Kontich, Belgium). The enamel working side of the tooth slice was polished and other sides marked with acid-proof nail polish. All tooth slices were cleaned and stored in deionized water at 4° C.
Tooth slices (N=30) were immersed in 8 μmol/mL P-113, P-113-DPS, P-113-DA, P-113-SK, Sp-H5 (n=5 for each) solutions (in 10 mM HEPES) or HEPES (control) overnight. Tooth slices were incubated in 2 mL demineralization solution (2.2 mM CaCl2), 2.2 mM NaH2PO4, 0.05 M acetic acid, pH 4.5) for 7 days at 37° C. Lesions depths were analyzed by MicroCT Skyscan 1172. Mineral calcium (Ca) or phosphorus (P) concentrations before and after immersion were measured using Inductively Coupled Plasma Optical Emission Spectrometer (ICP-OES; Spectro Arcos, Kleve, Germany). Ca/P loss was expressed as mM/cm^2. The mean values of Ca/P loss were analyzed for each group using ANOVA at the 1% c significance level.

[4] = Remineralization assay of peptide-coated enamel (Example 1); parameters: species or system human; settings: 8 μmol/mL coating, remineralization solution 24 h, FE-SEM
Experimental: as §3
The enamel working surface of tooth slices (N=30) was acid-etched in 37% phosphoric acid for 1 min and rinsed with deionized water for 1 min. The slices were immersed in 8 μmol/mL P-113, P-113-DPS, P-113-DA, P-113-SK, Sp-H5 (n=5 for each) solutions (in 10 mM HEPES) or HEPES (control) overnight. All tooth slices were incubated in 7 mL remineralization solution (2.58 mM CaCl2)·2H2O, 1.55 mM KH2PO4, 10 mg/L NaF, 180 mM NaCl, 50 mM Tris-HCl, pH 7.6) for 24 h. The enamel surface and cross-section morphology were analyzed by FE-SEM (Hitachi, S4800). Ca/P concentrations in the solutions before and after immersion were calculated by ICP-OES. The mean values for Ca/P gain were analyzed using ANOVA at the 1‰ significance level.

S. mutans [5] = assay: Anti-planktonic bacterial ability, MIC and MBC (Example 1); type: cell-based, Streptococcus mutans (ATCC 35668); settings: for MIC: 24 h
Experimental: (§4) Streptococcus mutans (ATCC 35668, ATCC, Manassas, USA) were cultured in Horse Blood Medium under anaerobic (85% N2, 10% H2, and 5% CO2) conditions at 37° C. Cells were harvested by centrifugation (5000 rpm, 10 min), washed once with 10 mM sodium phosphate-buffered saline (PBS, pH 7.2), and resuspended in brain-heart infusion broth (BHI, Difco Laboratories, Detroit, USA) at a concentration of 10^6 CFU/mL.
Two-fold serial dilutions (in 10 mM HEPES) of P-113, P-113-DPS, P-113-DA, P-113-SK, and Sp-H5 prepared in 25% BHI medium were pipetted into a 96-well cell culture plate at final concentrations from 0.125-128 μmol/mL [100 μL/well]. Each well was seeded with 10 μL bacterial suspension at a final concentration of 10^6 CFU/mL. Sp-H5 with bacterial cells and 25% BHI medium with and without bacterial cells in 10 mM HEPES buffer (pH 7) were used as the positive, negative, and blank control group, respectively. After a 24-h incubation, absorbance was measured at 595 nm using a microplate reader to assess cell growth. […] The minimal bactericidal concentration (MBC) was defined as the lowest concentration of peptide resulting in no colony formation on agar plates after incubation. 10 μL of cell suspension from each well were plated on horse blood agar plates and incubated at 37° C. for 48 h. All determinations were conducted in triplicate experiments.

[6] = Adsorption capacity assay: peptides with HA particles (Micro BCA); type: binding; settings: for Concentration change (95% CI): initial vs final concentration with HA particles; for Final concentration (Mean ± SD): peptide solution mixed with HA particles (20 mg/tube), overnight 37° C.
Experimental: The adsorption of P-113, P-113-DPS, P-113-DA, and P-113-SK to HA particles (Sigma Chemical Co., St Louis, USA) was measured using the Micro BCA method with Sp-H5 as the control group. Solutions of P-113, P-113-DPS, P-113-DA, P-113-SK and Sp-H5 in 10 mM HEPES buffer (pH 7) were diluted to 10 nmol/mL concentrations, and 200 μL was placed into each tube (P-113, N=10; P-113-DPS, N=10; P-113-DA, N=10; P-113-SK, N=10; and Sp-H5, N=10). Peptide solutions were mixed with (n=5) or without (n=5) HA particles (20 mg/tube) in each group. Tubes were placed onto a rotator overnight at 37° C. for complete reaction. Tubes containing the peptide solution and HA were centrifuged (13000 rpm, 1 min) and the supernatant collected. Bovine serum albumin (BSA) standard solutions (working range=5-250 μg/mL) and working reagent were prepared using the Pierce BCA Protein Assay Kit (Rockford, IL, USA). Working reagents (100 μL/well) were added to a 96-well plate, followed by standard and peptide solutions (100 μL/well). The Plate was incubated in the dark for 30 min and the absorbance (562 nm) measured using a plate reader. The concentration (C) of the BSA standard solution was linear with the absorbance (A) at 562 nm. The function of C=a*A+b was determined (a and b as constants). The final concentration (the peptide solution mixed with HA) and the initial concentration (the peptide solution without HA) were computed using the function and the generated absorbance data of the peptide solution mixed with and without HA.

S. mutans biofilms = type: cell-based; settings: for S. mutans killed (biofilm) / Viability counts of S. mutans biofilms: 24 h exposure
Experimental: as §4
S. mutans biofilms were cultured on enamel working surfaces in a 96-well plate. Tooth slices (N=32) were autoclave-sterilized prior to anti-biofilm activity testing. 200 μL S. mutans in BHI (10^6 CFU/mL) was added to each well. After a 24-h incubation at 37° C., each tooth slice was washed once with PBS. […] (in 10 mM HEPES). After incubation, tooth slices were washed once with PBS. One tooth slice at random in each group was stained with the LIVE/DEAD BacLight Bacterial Viability Kit (L7012, Thermo Fisher Scientific, Waltham, USA) and incubated in the dark for 30 min. Fluorescence images were obtained using confocal laser scanning microscopy (CLSM, Fluoview 1000, Olympus, USA). A separate tooth slice was used for the counting of colony-forming units (CFU). Tooth slices were placed in 1 mL BHI solution, and adherent biofilms were removed from the enamel surfaces by sonication for 30 sec. Ten-fold serial dilutions of the suspensions were plated in duplicate on horse blood agar. CFU's were counted after 48-h incubation. Three independent biofilm experiments were performed.

S. mutans [7] = assay: Anti-bacterial adhesion ability on peptide-coated enamel (Example 1); type: cell-based, Streptococcus mutans (ATCC 35668); settings: 32 μmol/mL coated, 5 h incubation
Experimental: as §4
After overnight incubation, they were placed in a 96-well plate, followed by 200 μL S. mutans in BHI (10^6 CFU/mL) and incubation at 37° C. for 5 h. Tooth slices were washed once with PBS, one tooth slice at random from each group was stained, and fluorescence images obtained by CLSM. Separate tooth slices were used for CFU counting. Three independent biofilm experiments were performed.

[8] = demineralization solution 7 days

## DSSDSSDSSDSSDSSDSSDSSDSSAKRHHGYKRKFH [Peptide 8DSS-P-113]
S. sanguinis
  MBC, S. sanguinis: 64 μM mL^−1
S. mutans [1]
  MBC, S. mutans: >64 μM mL^−1
S. gordonii
  MBC, S. gordonii: 64 μM mL^−1

## TFFRLFNRAKRHHGYKRKFH [Peptide C8-P-113]
In vitro
  remaining at 6 h, 1 mg mL^−1: 11.9%
MC3T3-E1 cells; MC3T3-E1, 24 h, ½×MBC, MBC and 2×MBC tested
  Concentrations with no significant differences in cell survival rates compared to the control group: all concentrations
MC3T3-E1 cells; summary grade
  Cytocompatibility: ++
[2]; 0 h
  Peptide concentration incubated in human saliva: 1 mg/mL
[2]; 0.5 h
  Peptide concentration incubated in human saliva: 0.9531 mg/mL
[2]; 1 h
  Peptide concentration incubated in human saliva: 0.8602 mg/mL
[2]; 2 h
  Peptide concentration incubated in human saliva: 0.4977 mg/mL
[2]; 4 h
  Peptide concentration incubated in human saliva: 0.3578 mg/mL
[2]; 6 h
  Peptide concentration incubated in human saliva: 0.119 mg/mL
[2]; summary grade
  Stability: −

## SpSpAKRHHGYKRKFH ([pS][pS]AKRHHGYKRKFH) [DPS-P-113]
S. sanguinis
  MBC, S. sanguinis: >64 μM mL^−1
S. mutans [1]
  MBC, S. mutans: 64 μM mL^−1
S. gordonii
  MBC, S. gordonii: >64 μM mL^−1

## AKRHHGYKRKFH-D-3,4-dihydroxyphenethylamine (AKRHHGYKRKFHD-{3,4‑dihydroxyphenethylamine}; not fully specified; printed as AKRHHGYKRKFH-D-3,4-dihydroxyphenethylamine) [Peptide P-113-DA]
[3]; [8]
  Maximum lesion depth: 110 μm
  Ca losses vs control group: Significant differences were not detected
[4]
  Thickness of the regenerated crystal layer on the enamel surface: 7 μm
S. mutans [5]
  MBC: 32 μM mL^−1
  MIC: 16 μM mL^−1
[6]
  Concentration change (95% CI): −0.17 (−0.55-0.40)
  Final concentration (Mean ± SD): 10.05 ± 0.99 nM mL^−1
S. mutans biofilms; 64 μmol/mL
  S. mutans killed (biofilm): Approximately 99%
  Viability counts of S. mutans biofilms: 6.04E+05 CFU/mL
S. mutans biofilms; 64 and 128 μmol/mL, 24 h
  CLSM live/dead state of S. mutans biofilm: the majority of S. mutans were dead

## TFFRLFNRAKRHHGYKRKFHDSSDSSDSSDSSDSSDSSDSSDSS (not fully specified) [C8-P-113-8DSS]
S. sanguinis
  MBC, S. sanguinis: >64 μM mL^−1
S. mutans [1]
  MBC, S. mutans: 64 μM mL^−1
S. gordonii
  MBC, S. gordonii: >64 μM mL^−1

## AKRHHGYKRKFHDSSDSSDSSDSSDSSDSSDSSDSS [Peptide P-113-8DSS]
S. sanguinis
  MBC, S. sanguinis: >64 μM mL^−1
S. mutans [1]
  MBC, S. mutans: >64 μM mL^−1
S. gordonii
  MBC, S. gordonii: >64 μM mL^−1

## phosphoserine-DSHAKRHHGYKRKFHEKHHSHRGY (SDSHAKRHHGYKRKFHEKHHSHRGY; N-terminal phosphoserine; MOD_RES 1 Serine is phosphorylated) [Sp-H5, phosphoserine-histatin 5, used as control group]
[3]; [8]
  Maximum lesion depth: 85 μm
[3]; vs P-113-, P-113-DA-, P-113-SK-coated or non-coated slices, P<0.001
  Ca and P loss from coated enamel slices (ICP-OES): decreased significantly
[4]
  Thickness of the regenerated crystal layer on the enamel surface: 6 μm
S. mutans [5]
  MBC: 32 μM mL^−1
  MIC: 8 μM mL^−1
[6]
  Concentration change (95% CI): 3.27 (2.92-3.58)
  Final concentration (Mean ± SD): 6.73 ± 0.12 nM mL^−1
S. mutans [7]
  Viable counts of S. mutans on peptide-coated enamel surfaces: 2.04E+05 CFU/mL
S. mutans biofilms; 128 μmol/mL
  S. mutans killed (biofilm): Approximately 99%
  Viability counts of S. mutans biofilms: 2.0E+04 CFU/mL
